The values that follow come from US20200368247A1, “CENICRIVIROC FOR THE TREATMENT OF FIBROSIS” (Tobira Therapeutics, Inc., priority 2014, published 2020).

Assay [1] addresses T1, CCR2 (Homo sapiens, UniProt P41597).
T1 construct: endogenous in cells; host or cells: monocytes within PBMCs from HIV+ and HIV- subjects
T1 sequence (P41597 1-360 isoform P41597-2): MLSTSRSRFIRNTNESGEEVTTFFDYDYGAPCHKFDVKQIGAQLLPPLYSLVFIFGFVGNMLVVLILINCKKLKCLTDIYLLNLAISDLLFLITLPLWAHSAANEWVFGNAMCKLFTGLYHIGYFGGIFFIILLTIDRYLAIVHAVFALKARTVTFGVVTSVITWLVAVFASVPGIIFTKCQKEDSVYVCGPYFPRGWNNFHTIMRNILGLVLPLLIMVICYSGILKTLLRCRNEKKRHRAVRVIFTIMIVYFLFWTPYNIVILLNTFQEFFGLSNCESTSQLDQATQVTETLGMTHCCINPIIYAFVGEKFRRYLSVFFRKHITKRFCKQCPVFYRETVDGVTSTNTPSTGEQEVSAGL
In words: CCR2 receptor occupancy / MCP-1-induced CCR2 internalization in PBMCs, flow cytometry. The assay is classed as cell-based. As to the method:
(§1) The capacity of each drug to inhibit CCR5 or CCR2 internalization was evaluated. Cell-surface expression of CCR5 and CCR2 was assessed by flow cytometry, and fluorescence values were converted into molecules of equivalent soluble fluorescence (MESF).

Assay [2] concerns the target T2, CCR5 (Homo sapiens, UniProt P51681). In words: Inhibition of ligand binding to CCR5-expressing CHO cells.
The test system of assay [3] is HIV-1 BaL. In words: PM-1 cells exposed to HIV-1 BaL: virus in culture fluids (qRT-PCR, p24) and intracellular strong-stop DNA. The assay is classed as cell-based. The settings on record: 4 hrs. The text has this: Cells. PM-1 cells that express CD4, CCR5, and CXCR4 were maintained in RPMI-1640 medium containing 10% fetal bovine serum (R10 medium) at 37 C, 5% CO2. 293T cells used for transfection were maintained in DMEM at 10% FBS, L-glutamine, and antibiotics (D10 medium) at 37 C, 5% CO2. Virus Stocks. HIV-1 BaL virus was produced by transfecting 293T cells with the plasmid pWT/BaL. Lipofectamine 2000 was used as a transfection agent. Culture supernatants were collected at 48 hrs post-transfection, filtered through a 0.45 μm pore filter, and treated with 50 units of benzonase per ml of virus stock for 20 minutes at 37 C to remove contaminating plasmid DNA. […]
Both drugs were incubated with PM-1 cells for 1 hr at 37 C prior to the addition of virus. […] Viral adsorption was measured in the no-drug controls, whereby 500 ng of p24 Ag of HIV-1 Bal were added per 5×10^5 PM-1 cells that were pre-incubated at 37 C for 1 hr in the absence of drug treatment. […] Supernatant viral loads were measured using quantitative real-time reverse transcription PCR (qRT-PCR) with the primers US1SSF (5′-ΔΔ[…]-3′), US1SSR (5′-[…]-3′) and US1SS probe (5′-(FAM) […]) and the Invitrogen qRT-PCR Supermix Kit. […] RNA copy number was quantified by use of 10-fold serial dilutions of pBaL/wt to generate standard curves for each assay and calibrated against samples with known copy numbers from previous studies. […]
In general terms: Quantitative PCR measures a nucleic acid by following its amplification.

The target in assay [4] is T2, CCR5. In words: CCR5 receptor occupancy / RANTES-induced CCR5 internalization in PBMCs, flow cytometry. The format is cell-based. To be noted: at saturating concentration. On the procedure:
as §1
Background: In flow cytometry, cells or beads pass a laser one at a time.

T2 sequence (P51681 whole entry): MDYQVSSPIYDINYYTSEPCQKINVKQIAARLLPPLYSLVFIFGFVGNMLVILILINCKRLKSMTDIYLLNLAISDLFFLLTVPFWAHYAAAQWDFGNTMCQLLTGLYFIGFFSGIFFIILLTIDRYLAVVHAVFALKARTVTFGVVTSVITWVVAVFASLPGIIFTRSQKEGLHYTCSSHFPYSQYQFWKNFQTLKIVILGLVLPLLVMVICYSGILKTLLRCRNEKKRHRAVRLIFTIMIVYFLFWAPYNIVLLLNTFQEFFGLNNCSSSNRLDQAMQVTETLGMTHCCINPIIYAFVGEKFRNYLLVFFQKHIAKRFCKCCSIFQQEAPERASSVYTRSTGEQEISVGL

`CSc1ccc(C(=O)N[C@@H]2CCCC[C@@H]2NC(=O)CNC(=O)c2cc(C(F)(F)F)ccc2NC(=O)NC(C)C)cc1` [BMS-22, reference compound]: the “concentration required to reach >80% receptor occupancy” value in assay [1] (CCR2, average) came out at 18 nM. Further, in assay [1] (in the absence of MCP-1, monocytes), the CCR2 cell-surface expression entry is “slightly increased”.
Take `CCCCOCCOc1ccc(-c2ccc3c(c2)C=C(C(=O)Nc2ccc(SC)cc2)CCCN3CC(C)C)cc1` [M-II]: in assay [2] (CHO cells), the “IC50, inhibition of binding of RANTES to CCR5-expressing cells” value is given as “no effect”.
`CCCCOCCOc1ccc(-c2ccc3c(c2)C=C(C(=O)Nc2ccc(S(=O)(=O)Cc4cncn4CCC)cc2)CCCN3CC(C)C)cc1` [M-I]: the “IC50 relative to the IC50 of CVC” value in assay [2] (RANTES binding to CCR5-expressing cells) is recorded as “approximately 2 fold”.
With Maraviroc [MVC], in assay [3] (CVC 20 nM, MVC 50 nM, baseline 506), the “p24 antigen level in culture fluids” value turned out to be 520 ng/mL. In addition, the “relative intracellular strong-stop HIV DNA level compared to no drug control” value in assay [3] (PM-1 cells) was 0.02. Also, the CCR5 receptor occupancy in assay [4] (CD4+ T cells) is given as around 86%; in assay [4] (CD8+ T cells) it was around 87%.
